Results: PubChem BioAssay (NCI)
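1) Cells in 96-well plates. 2) Compound, 48 h, 5 concentrations. 3) Linear interpolation between surrounding doses. 4) Unreached endpoint = highest concentration. The concentration for full growth arrest is given as TGI.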

How the values were obtained:
Assay in all cases: NCI anticancer screen, dose series, 48 h
SNB-75 CNS = test system: SNB-75 CNS
SF-295 CNS = test system: SF-295 CNS
COLO 205 colon = test system: COLO 205 colon
HS 578T breast = test system: HS 578T breast
SN12C renal = test system: SN12C renal
SK-MEL-28 melanoma = test system: SK-MEL-28 melanoma
UO-31 renal = test system: UO-31 renal
NCI-H23 lung = test system: NCI-H23 lung
NCI-H226 lung = test system: NCI-H226 lung
OVCAR-5 ovarian = test system: OVCAR-5 ovarian
NCI-H460 lung = test system: NCI-H460 lung
HCT-15 colon = test system: HCT-15 colon
SK-OV-3 ovarian = test system: SK-OV-3 ovarian
BT-549 breast = test system: BT-549 breast
NCI/ADR-RES ovarian = test system: NCI/ADR-RES ovarian
UACC-62 melanoma = test system: UACC-62 melanoma
T-47D breast = test system: T-47D breast
EKVX NSCLC = test system: EKVX NSCLC
RXF 393 renal = test system: RXF 393 renal
IGROV1 ovarian = test system: IGROV1 ovarian
MCF7 breast = test system: MCF7 breast
SR leukemia = test system: SR leukemia
HOP-92 NSCLC = test system: HOP-92 NSCLC
SF-268 CNS = test system: SF-268 CNS
U251 CNS = test system: U251 CNS
MALME-3M melanoma = test system: MALME-3M melanoma
K-562 leukemia = test system: K-562 leukemia
LOX IMVI melanoma = test system: LOX IMVI melanoma
SNB-19 CNS = test system: SNB-19 CNS
PC-3 prostate = test system: PC-3 prostate
SW-620 colon = test system: SW-620 colon
OVCAR-8 ovarian = test system: OVCAR-8 ovarian
MDA-MB-435 = test system: MDA-MB-435
HL-60(TB) leukemia = test system: HL-60(TB) leukemia
SF-539 CNS = test system: SF-539 CNS
OVCAR-4 ovarian = test system: OVCAR-4 ovarian
MDA-MB-231 breast = test system: MDA-MB-231 breast
M14 melanoma = test system: M14 melanoma
HT29 colon = test system: HT29 colon
HCC-2998 colon = test system: HCC-2998 colon
SK-MEL-2 melanoma = test system: SK-MEL-2 melanoma
SK-MEL-5 melanoma = test system: SK-MEL-5 melanoma
A549 NSCLC = test system: A549 NSCLC
786-0 renal = test system: 786-0 renal
ACHN renal = test system: ACHN renal
HOP-62 NSCLC = test system: HOP-62 NSCLC
A498 renal = test system: A498 renal
MDA-N = test system: MDA-N
TK-10 renal = test system: TK-10 renal
CAKI-1 renal = test system: CAKI-1 renal
RPMI-8226 leukemia = test system: RPMI-8226 leukemia
OVCAR-3 ovarian = test system: OVCAR-3 ovarian
DU-145 prostate = test system: DU-145 prostate
KM12 colon = test system: KM12 colon
UACC-257 melanoma = test system: UACC-257 melanoma
NCI-H522 lung = test system: NCI-H522 lung
HCT-116 colon = test system: HCT-116 colon
MOLT-4 leukemia = test system: MOLT-4 leukemia
CCRF-CEM leukemia = test system: CCRF-CEM leukemia

COC(=O)/C=C\C(C#N)(C#N)N=Cc1ccc(OC)cc1
TGI (SNB-75 CNS): 34.2 µM | TGI (SF-295 CNS): 53 µM | TGI (COLO 205 colon): 3.47 µM | TGI (HS 578T breast): 33.7 µM | TGI (SN12C renal): 30.9 µM | TGI (SK-MEL-28 melanoma): 12.8 µM | TGI (UO-31 renal): 5.96 µM | TGI (NCI-H23 lung): 28.3 µM | TGI (NCI-H226 lung): 25.3 µM | TGI (OVCAR-5 ovarian): 40.7 µM | TGI (NCI-H460 lung): 42.5 µM | TGI (HCT-15 colon): 13.2 µM | TGI (SK-OV-3 ovarian): 31 µM | TGI (BT-549 breast): 10.4 µM | TGI (NCI/ADR-RES ovarian): 9.09 µM | TGI (UACC-62 melanoma): 30 µM | TGI (T-47D breast): 4.53 µM | TGI (EKVX NSCLC): 32 µM | TGI (RXF 393 renal): 5.42 µM | TGI (IGROV1 ovarian): 28.7 µM | TGI (MCF7 breast): 7.44 µM | TGI (SR leukemia): 3.99 µM | TGI (HOP-92 NSCLC): 4.61 µM | TGI (SF-268 CNS): 11.5 µM | TGI (U251 CNS): 35.2 µM | TGI (MALME-3M melanoma): 4.01 µM | TGI (K-562 leukemia): > 58.6 µM | TGI (LOX IMVI melanoma): 11.4 µM | TGI (SNB-19 CNS): > 62.7 µM | TGI (PC-3 prostate): 19.6 µM | TGI (SW-620 colon): 14.6 µM | TGI (OVCAR-8 ovarian): 9.46 µM | TGI (MDA-MB-435): 5.44 µM | TGI (HL-60(TB) leukemia): 5.62 µM | TGI (SF-539 CNS): 11.2 µM | TGI (OVCAR-4 ovarian): 12.8 µM | TGI (MDA-MB-231 breast): 37.7 µM | TGI (M14 melanoma): 8.77 µM | TGI (HT29 colon): 22.2 µM | TGI (HCC-2998 colon): 41.1 µM | TGI (SK-MEL-2 melanoma): 35.5 µM | TGI (SK-MEL-5 melanoma): 32.6 µM | TGI (A549 NSCLC): 38.3 µM | TGI (786-0 renal): 4.62 µM | TGI (ACHN renal): 8.64 µM | TGI (HOP-62 NSCLC): 33.9 µM | TGI (A498 renal): 33 µM | TGI (MDA-N): 16.5 µM | TGI (TK-10 renal): 6.73 µM | TGI (CAKI-1 renal): 4.48 µM | TGI (RPMI-8226 leukemia): 2870 nM | TGI (OVCAR-3 ovarian): 6.64 µM | TGI (DU-145 prostate): 17 µM | TGI (KM12 colon): 32.6 µM | TGI (UACC-257 melanoma): 11.6 µM | TGI (NCI-H522 lung): 2260 nM | TGI (HCT-116 colon): 3.77 µM | TGI (MOLT-4 leukemia): 4.39 µM | TGI (CCRF-CEM leukemia): 2530 nM
